Reference: PubChem BioAssay (NCI)
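Following 48 hours of exposure in 96-well plates, responses at five concentrations were used to interpolate endpoints linearly. GI50 marks 50% less growth. TGI marks complete inhibition of growth.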

Columns and labels:
Assay in all cases: DTP human tumour cell line panel, 48 h
HS 578T breast = tested on: HS 578T breast
SNB-75 CNS = tested on: SNB-75 CNS
OVCAR-8 ovarian = tested on: OVCAR-8 ovarian
UO-31 renal = tested on: UO-31 renal
SNB-19 CNS = tested on: SNB-19 CNS
SK-MEL-28 melanoma = tested on: SK-MEL-28 melanoma
SK-MEL-5 melanoma = tested on: SK-MEL-5 melanoma
CCRF-CEM leukemia = tested on: CCRF-CEM leukemia
NCI-H522 lung = tested on: NCI-H522 lung
SF-268 CNS = tested on: SF-268 CNS
KM12 colon = tested on: KM12 colon
U251 CNS = tested on: U251 CNS
SN12C renal = tested on: SN12C renal
MALME-3M melanoma = tested on: MALME-3M melanoma
RXF 393 renal = tested on: RXF 393 renal
HCC-2998 colon = tested on: HCC-2998 colon
NCI/ADR-RES ovarian = tested on: NCI/ADR-RES ovarian
MDA-MB-435 = tested on: MDA-MB-435
RPMI-8226 leukemia = tested on: RPMI-8226 leukemia
NCI-H23 lung = tested on: NCI-H23 lung
PC-3 prostate = tested on: PC-3 prostate
SW-620 colon = tested on: SW-620 colon
HCT-116 colon = tested on: HCT-116 colon
LOX IMVI melanoma = tested on: LOX IMVI melanoma
SF-539 CNS = tested on: SF-539 CNS
DU-145 prostate = tested on: DU-145 prostate
TK-10 renal = tested on: TK-10 renal
K-562 leukemia = tested on: K-562 leukemia
OVCAR-4 ovarian = tested on: OVCAR-4 ovarian
NCI-H226 lung = tested on: NCI-H226 lung
HL-60(TB) leukemia = tested on: HL-60(TB) leukemia
HOP-62 NSCLC = tested on: HOP-62 NSCLC
CAKI-1 renal = tested on: CAKI-1 renal
SK-MEL-2 melanoma = tested on: SK-MEL-2 melanoma
NCI-H460 lung = tested on: NCI-H460 lung
OVCAR-5 ovarian = tested on: OVCAR-5 ovarian
SK-OV-3 ovarian = tested on: SK-OV-3 ovarian
OVCAR-3 ovarian = tested on: OVCAR-3 ovarian
MCF7 breast = tested on: MCF7 breast
A549 NSCLC = tested on: A549 NSCLC
UACC-62 melanoma = tested on: UACC-62 melanoma
EKVX NSCLC = tested on: EKVX NSCLC
MDA-MB-231 breast = tested on: MDA-MB-231 breast
ACHN renal = tested on: ACHN renal
HOP-92 NSCLC = tested on: HOP-92 NSCLC
T-47D breast = tested on: T-47D breast
IGROV1 ovarian = tested on: IGROV1 ovarian
COLO 205 colon = tested on: COLO 205 colon
HCT-15 colon = tested on: HCT-15 colon
BT-549 breast = tested on: BT-549 breast
UACC-257 melanoma = tested on: UACC-257 melanoma
SF-295 CNS = tested on: SF-295 CNS
HT29 colon = tested on: HT29 colon
MOLT-4 leukemia = tested on: MOLT-4 leukemia
786-0 renal = tested on: 786-0 renal

FC(F)(F)c1cccc2c(SCCc3n[nH]c(=S)o3)ccnc12
GI50 (HS 578T breast): 30.1 µM
TGI (HS 578T breast): > 100 µM
GI50 (SNB-75 CNS): 36.3 µM
TGI (SNB-75 CNS): > 100 µM
GI50 (OVCAR-8 ovarian): 36.5 µM
TGI (OVCAR-8 ovarian): > 100 µM
GI50 (UO-31 renal): 25.4 µM
TGI (UO-31 renal): > 100 µM
GI50 (SNB-19 CNS): 54.2 µM
TGI (SNB-19 CNS): > 100 µM
GI50 (SK-MEL-28 melanoma): 82.9 µM
TGI (SK-MEL-28 melanoma): > 100 µM
GI50 (SK-MEL-5 melanoma): 19.5 µM
TGI (SK-MEL-5 melanoma): 44.1 µM
GI50 (CCRF-CEM leukemia): 38.6 µM
TGI (CCRF-CEM leukemia): > 100 µM
GI50 (NCI-H522 lung): 22.6 µM
TGI (NCI-H522 lung): 90 µM
GI50 (SF-268 CNS): 85.6 µM
TGI (SF-268 CNS): > 100 µM
GI50 (KM12 colon): 52.7 µM
TGI (KM12 colon): > 100 µM
GI50 (U251 CNS): 53.3 µM
TGI (U251 CNS): > 100 µM
GI50 (SN12C renal): 51.4 µM
TGI (SN12C renal): > 100 µM
GI50 (MALME-3M melanoma): 44.5 µM
TGI (MALME-3M melanoma): > 100 µM
GI50 (RXF 393 renal): 57 µM
TGI (RXF 393 renal): > 100 µM
GI50 (HCC-2998 colon): 37.9 µM
TGI (HCC-2998 colon): > 100 µM
GI50 (NCI/ADR-RES ovarian): 38 µM
TGI (NCI/ADR-RES ovarian): > 100 µM
GI50 (MDA-MB-435): 45.4 µM
TGI (MDA-MB-435): > 100 µM
GI50 (RPMI-8226 leukemia): 30.3 µM
TGI (RPMI-8226 leukemia): > 100 µM
GI50 (NCI-H23 lung): 40 µM
TGI (NCI-H23 lung): > 100 µM
GI50 (PC-3 prostate): 34.1 µM
TGI (PC-3 prostate): > 100 µM
GI50 (SW-620 colon): > 100 µM
TGI (SW-620 colon): > 100 µM
GI50 (HCT-116 colon): 44.4 µM
TGI (HCT-116 colon): > 100 µM
GI50 (LOX IMVI melanoma): 67 µM
TGI (LOX IMVI melanoma): > 100 µM
GI50 (SF-539 CNS): 45.9 µM
TGI (SF-539 CNS): > 100 µM
GI50 (DU-145 prostate): 78.4 µM
TGI (DU-145 prostate): > 100 µM
GI50 (TK-10 renal): 66.6 µM
TGI (TK-10 renal): > 100 µM
GI50 (K-562 leukemia): 47.4 µM
TGI (K-562 leukemia): > 100 µM
GI50 (OVCAR-4 ovarian): 32.5 µM
TGI (OVCAR-4 ovarian): > 100 µM
GI50 (NCI-H226 lung): 37.1 µM
TGI (NCI-H226 lung): > 100 µM
GI50 (HL-60(TB) leukemia): 67.8 µM
TGI (HL-60(TB) leukemia): > 100 µM
GI50 (HOP-62 NSCLC): 94.2 µM
TGI (HOP-62 NSCLC): > 100 µM
GI50 (CAKI-1 renal): 45.1 µM
TGI (CAKI-1 renal): > 100 µM
GI50 (SK-MEL-2 melanoma): 25.4 µM
TGI (SK-MEL-2 melanoma): 82.6 µM
GI50 (NCI-H460 lung): 67.4 µM
TGI (NCI-H460 lung): > 100 µM
GI50 (OVCAR-5 ovarian): 97.6 µM
TGI (OVCAR-5 ovarian): > 100 µM
GI50 (SK-OV-3 ovarian): 92.7 µM
TGI (SK-OV-3 ovarian): > 100 µM
GI50 (OVCAR-3 ovarian): 42.9 µM
TGI (OVCAR-3 ovarian): > 100 µM
GI50 (MCF7 breast): 41.6 µM
TGI (MCF7 breast): > 100 µM
GI50 (A549 NSCLC): 51.6 µM
TGI (A549 NSCLC): > 100 µM
GI50 (UACC-62 melanoma): 16.6 µM
TGI (UACC-62 melanoma): 34 µM
GI50 (EKVX NSCLC): 27.6 µM
TGI (EKVX NSCLC): > 100 µM
GI50 (MDA-MB-231 breast): 43.1 µM
TGI (MDA-MB-231 breast): > 100 µM
GI50 (ACHN renal): 60.2 µM
TGI (ACHN renal): > 100 µM
GI50 (HOP-92 NSCLC): 28.4 µM
TGI (HOP-92 NSCLC): 81.6 µM
GI50 (T-47D breast): 29.3 µM
TGI (T-47D breast): 93.3 µM
GI50 (IGROV1 ovarian): 23.4 µM
TGI (IGROV1 ovarian): > 100 µM
GI50 (COLO 205 colon): 64.8 µM
TGI (COLO 205 colon): > 100 µM
GI50 (HCT-15 colon): 66.2 µM
TGI (HCT-15 colon): > 100 µM
GI50 (BT-549 breast): 30 µM
TGI (BT-549 breast): > 100 µM
GI50 (UACC-257 melanoma): 33.3 µM
TGI (UACC-257 melanoma): 89 µM
GI50 (SF-295 CNS): 48.7 µM
TGI (SF-295 CNS): > 100 µM
GI50 (HT29 colon): 64.2 µM
TGI (HT29 colon): > 100 µM
GI50 (MOLT-4 leukemia): 31.2 µM
TGI (MOLT-4 leukemia): > 100 µM
GI50 (786-0 renal): > 100 µM
TGI (786-0 renal): > 100 µM
